# “Also recorded” adds a separate entry of the source.
# Columns and labels:
# TGF-β1 = TGF-β1 (Homo sapiens, UniProt P01137); conditions: cited from earlier work
# BMP-4 = molecular target: T1, BMP-4 (Homo sapiens, UniProt P12644); conditions: cited from earlier work
# T1 sequence (P12644 293-408): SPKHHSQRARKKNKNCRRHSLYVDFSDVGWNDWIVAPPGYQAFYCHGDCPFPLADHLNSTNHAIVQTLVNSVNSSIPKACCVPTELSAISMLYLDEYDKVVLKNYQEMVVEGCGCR
# [1] = system: Human epidermal keratinocytes (HaCaT cells); assay: "scrape" in vitro wound healing model (wound closure of a scraped confluent monolayer); type: cell-based; conditions: for wound width, day 1: day 1 (24 hours); for wound width, day 2: day 2 (48 hours); for ability to enhance keratinocyte wound closure compared with thyroglobulin and TGF-β1 inhibitor: at all concentrations of agents
# Protocol: The “scrape” in vitro wound healing model has been previously presented in the literature (Li, F. et al., 2000, Exp Cell Res., 258(2): 245-253; Firth J. D. et al., 2004, J. Invest. Dermatol., 122(1): 222-231). In this model a scrape across a confluent monolayer of cells is used to simulate a wound and the effect of agents added to serum free media is tested on the rate of closure of the gap.
# Human epidermal keratinocytes (HaCaT cells) were plated at a density of 1×10^5 cells/well into Nunc 6 well plates in Dulbecco's Modified Eagle Medium (DMEM) containing 10% fetal bovine serum (FBS) benzyl penicillin (100 IU/ml), streptomycin […] confluence (2 days) monolayers were “wounded” with a 1 ml pipette tip (0.5 mm width) by scraping the tip across the centre of the well. The wells were then washed 5 times with DMEM. One ml of either DMEM with 10% FBS, DMEM or DMEM with: 3, 6, 12 or 24 mgs/ml bovine fetuin A (Sigma), 6.25, 12.5, 25 or 50 μg/ml peptide TGF peptide antagonist (Corresponding to residues 41-65 of TGFβ-1-3:—Huang S. S. et al., 1997, Journal of Biological Chemistry, 272(43):27155-27159) and 2.1, 4.2, 8.4 and 16.8 mg/ml bovine thyroglobulin was added to each well (2 replicates per plate, 4 plates). These concentrations were calculated to have equivalent antagonistic effect on the binding of TGFβ-1 to its receptor for each of the compounds. All DMEM solutions used contained benzyl penicillin (100 IU/ml), streptomycin ([…]) and fungizone (250 mg/ml). A mark was placed on the base of each well at right angles to the “wound” and the wound was photographed at the intersection of the mark and wound with a Nikon EOS 300 digital camera fitted to a JenaMed (Ziess Jena) inverted microscope (50×). Images were taken at the same positions 24 and 48 hours after addition of the treatment media. Digital images were analysed with Image Pro (Media Cybernetics) image analysis software and an image of a Nikon stage micrometer was used for calibration of length measurements. Results were summarized as the wound width after 24 and 48 hours.
# [2] = Penetration of fluorescently labeled fetuin into lamb burn wounds from different carriers; type: in vivo, Merino lambs; conditions: 2 mg/mL, lamb scald wounds, 24 hours
# Protocol: Lyophilized bovine Fetuin (Sigma) was dissolved in purified water at a concentration of 10 mg/mL. Aliquots of 200 μL were labeled using a FluoReporter Oregon Green® 488 Protein Labeling Kit (Molecular Probes). Assuming 85% recovery from the kit, the solution was dried down using a vacuum concentrator (Labconco) and added at 2 mg/mL to one of 3 different carriers: paraffin cream, aqueous cream (Orion, Australia) or dissolved in purified water to make an aqueous solution.
# Two Merino lambs were scalded under general anesthesia as described previously. Eight wounds were created on each animal; 2× control wounds with nothing added, 2× aqueous solution treated wounds, 2× aqueous cream treated wounds and 2× paraffin cream treated wounds. The wounds were dressed with Melolin and Sleek and the lambs awoken and returned to the pens. 24 hours later the lambs were euthanized and the burn wounds (as well as an unburned area) were collected and fixed in formalin for paraffin embedding. Sections of (4 μm) were taken and examined under a Nikon EP epifluorescent microscope to determine the extent of fetuin penetration in each of the carriers. Brightfield transmittance and Fluorescent green images were captured with a Spot RT slider cooled CCD camera and overlayed with using Photoshop software.
# BMP-2 = molecular target: T2, BMP-2 (Homo sapiens, UniProt P12643); conditions: cited from earlier work
# T2 sequence (P12643 283-396): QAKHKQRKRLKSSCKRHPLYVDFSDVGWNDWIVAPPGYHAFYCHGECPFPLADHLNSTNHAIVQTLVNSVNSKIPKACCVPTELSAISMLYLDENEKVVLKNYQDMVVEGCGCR
# [3] = 3 mgs/ml bovine fetuin A in DMEM
# [4] = 6 mgs/ml bovine fetuin A in DMEM
# [5] = 12 mgs/ml bovine fetuin A in DMEM
# [6] = 24 mgs/ml bovine fetuin A in DMEM
# TGF-β1, sequence (P01137 279-390 limits assumed, species assumed): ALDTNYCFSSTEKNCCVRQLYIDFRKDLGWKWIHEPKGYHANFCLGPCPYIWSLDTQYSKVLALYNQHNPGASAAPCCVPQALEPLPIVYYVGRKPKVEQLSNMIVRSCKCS
substance,measurement,setting,value
Fetuin: bovine fetuin A (Sigma); glycoprotein also called alpha2-Heremans-Schmid-glycoprotein (AHSG),binding to TGF-β1,TGF-β1,strongly
same,binding to BMP-4,BMP-4,strongly
same,"wound width, day 0",[1]; [3],0.7602
same,"wound width, day 1",[1]; [3],0.4265
same,"wound width, day 2",[1]; [3],0.02947
same,"wound width, day 0",[1]; [4],0.7332
same,"wound width, day 1",[1]; [4],0.3938
same,"wound width, day 2",[1]; [4],0.01441
same,"wound width, day 0",[1]; [5],0.7231
same,"wound width, day 1",[1]; [5],0.3699
same,"wound width, day 2",[1]; [5],0.000259
same,"wound width, day 0",[1]; [6],0.6724
same,"wound width, day 1",[1]; [6],0.3806
same,"wound width, day 2",[1]; [6],0.04348
same,ability to enhance keratinocyte wound closure compared with thyroglobulin and TGF-β1 inhibitor,[1]; listed as fetuin,markedly more effective than either thyroglobulin or a TGF-β1 inhibitor
same,ability to enhance keratinocyte wound closure compared with thyroglobulin and TGF-β1 inhibitor,[1]; listed as fetuin A,significantly greater ability than thyroglobulin and TGFβ1 to enhance keratinocyte wound closure
same,penetration of labeled fetuin into burn tissue,[2]; aqueous solution,good penetration; also recorded: on the epidermis and at the end of hair follicles
same,penetration of labeled fetuin into burn tissue,[2]; oil based paraffin cream,little or no penetration
same,penetration of labeled fetuin into burn tissue,[2]; water based (aqueous) cream,good penetration; also recorded: penetration to the base of the hair follicles
same,binding to BMP-2,BMP-2,strongly

# Source: patent publication US20090130070A1, “METHOD OF TREATMENT” (The University of Queensland, priority 2004, published 2009)
